pIC50: −log10 of the molar value.
Test: Inhibition of yeast alpha-glucosidase by colorimetric method
Parameters: species or system Saccharomyces cerevisiae

Row | SMILES | pIC50
1 | Oc1cc(COCc2cc(O)c(O)c(Br)c2Br)c(Br)c(Br)c1O | 7.01
2 | OCc1cc(Br)c(O)c(Oc2c(CO)cc(Br)c(O)c2O)c1Br | 4.60
3 | OCc1cc(O)c(O)c(Br)c1Br [LANOSOL] | 4.05
